Experiments:
[1] = tested on: endothelial cell marker CD31; test: Tumor vascularity by CD31 immunohistochemistry in melanoma-bearing mice; assay type: in vivo; details: mice treated with the control antibody; p=0.022; FIG. 14B
[2] = tested on: B16F10 murine melanoma cells; test: Murine melanoma tumor model (B16F10 in C57BL/6 mice); assay type: in vivo; details: for tumor growth: FIG. 14A
Protocol: Mice were injected with 1×10^5 B16F10 murine melanoma cells murine subcutaneously on the left flank. Once tumors become palpable (approximately 5 days), mice were randomly allocated to receive treatment with either: 20% polyethylene glycol (PEG) in 5% […] (vehicle control for the disclosed HIF-2α stabilizer) and PBS (vehicle control for GM-CSF), 20% PEG and GM-CSF (100 ng per mouse in a 50 μL volume), the disclosed HIF-2α stabilizer (17.5 mg/kg in a 100 μL volume) and PBS, or the disclosed HIF-2α stabilizer and GM-CSF (same doses). The PBS and GM-CSF were administered intratumorally, while the 20% PEG and the disclosed HIF-2α stabilizer were administered intraperitoneally. Mice were treated 3 times per week until tumors reached a size of 20 mm in any dimension (approximately 2.5 weeks), at which point mice were euthanized, in accordance with institutional policy. Tumor diameters were measured 3 times per week with calipers, and tumor volumes were calculated as follows: Tumor volume=0.5×[(large diameter)×(small diameter)^2].
6-8-week-old C57BL/6 mice were injected with 1×10^5 B16F10 murine melanoma cells murine subcutaneously on the left flank. Once tumors become palpable (approximately 5 days), mice were randomly allocated to receive treatment with either: 20% PEG-400 in 5% sucrose (vehicle for disclosed HIF-2α stabilizer) and PBS (vehicle for GM-CSF), 20% PEG-400 and GM-CSF (100 ng per mouse in a 50 μL volume), disclosed HIF-2α stabilizer (17.5 mg/kg mouse weight in a 100 μL volume) and PBS, or the disclosed HIF-2α stabilizer and GM-CSF (same concentrations). The disclosed HIF-2α stabilizer (or the vehicle control) was administered intraperitoneally, while GM-CSF (or the vehicle control) was administered intratumorally. Mice were treated […] 3 times per week until tumors reached a size of 20 mm in any dimension (approximately 2.5 weeks), at which point mice were be euthanized, in accordance with institutional policy. Tumor diameters were measured 3 times per week with calipers, and tumor volumes will be calculated as follows: Tumor volume=0.5×[(large diameter)×(small diameter)^2]. For experiments analyzing the effect of neutralizing sVEGFR-1 in combination with disclosed HIF-2α stabilizer treatment, mice were treated intraperitoneally 3×/week with either disclosed HIF-2α stabilizer or vehicle control, and intratumorally with either 4 μg anti-VEGFR-1 neutralizing antibody (R&D Systems) or 4 μg polyclonal goat IgG isotype control (Santa Cruz Biotechnology) in a 50 μL volume. All protocols were approved by the Ohio State University Animal Care and Use Committee, and mice were treated in accordance with institutional guidelines for animal care.
The ANOVA test was used to compare independent measurements between multiple treatment groups. The data was log-transformed to normalize the variance across groups. P-values were adjusted using the Holm's procedure to conserve the type I error at 0.05 due to the multiple comparisons. For tumor growth data, changes in tumor volume over time were assessed via a longitudinal model. Tumor values were log-transformed, and estimated slopes (changes in tumor volume over time) were calculated with 95% confidence intervals. Estimated differences in tumor volume were calculated by a random-effects regression of the longitudinal data. For all analyses, p≦0.05 was considered statistically significant.
6-8-week-old C57BL/6 mice or SCID mice were injected with 1×10^5 B16F10 murine melanoma cells or 1×10^6 A375 human melanoma cells, respectively, subcutaneously on the left flank. […]

[3] = tested on: phosphoglycerate kinase (PGK) mRNA; test: PGK mRNA expression (qPCR) in wild type murine embryonic fibroblasts; assay type: cell-based; details: hypoxic conditions (1% O2), 1, 10 and 100 μM, vs. hypoxia control, FIG. 2A
Protocol: Total RNA was isolated from tissues and cells by using TRIzol™ Reagent (Invitrogen) and the RNeasy kit (Qiagen), respectively. 1 μg RNA was used for reverse transcription using SuperScript II First-Strand Synthersis System (Invitrogen). cDNA's were amplified in a SYR Green or TaqMan Universal Master Mix (Applied Biosystems). Quantitative PCR (qPCR) was performed on ABI Prism 7700 sequence detection system. PCR conditions are: 10 min at 95° C., 40 cycles of 15 seconds at 95° C. and 1 minute at 60° C. The relative amount of mRNA was calculated after normalization to β-actin.
Cells were cultured in DMEM (#11965-092, Invitrogen) supplemented with 10% fetal bovine serum (Invitrogen), 100 U/mL penicillin and […] streptomycin. For glucose deprivation, DMEM without glucose (#11966-025, Invitrogen) was used.
Mouse embryonic fibroblasts (MEFs) were isolated from E12.5 embryos and immortalized by stable transfection with SV40 large T antigen.

[4] = tested on: A375 human melanoma cells; test: A375 human melanoma tumors in SCID mice; assay type: in vivo; details: at the time of sacrifice; stabilizer 17 mg/kg, docetaxel 1 mg/kg, IP 3 times per week
Protocol: 6-8-week-old C57BL/6 mice or SCID mice were injected with 1×10^5 B16F10 murine melanoma cells or 1×10^6 A375 human melanoma cells, respectively, subcutaneously on the left flank. […] Tumor diameters were measured 3 times per week with calipers, and tumor volumes will be calculated as follows: Tumor volume=0.5×[(large diameter)×(small diameter)^2].
In the study, immunocompromised SCID mice were inoculated with A375 human melanoma tumors subcutaneously. Starting when the tumors became palpable (7 days after injection), mice were treated with either the cytotoxic chemotherapy docetaxel or with the disclosed HIF-2α stabilizer. The disclosed HIF-2α stabilizer was given at a dose of 17 mg/kg, and the docetaxel was given at 1 mg/kg. Both drugs were given IP 3 times per week. […] At the time of sacrifice, the tumors in the mice that received only the disclosed HIF-2α stabilizer were approximately 78% of the size of the control tumors, the tumors of the mice that received only chemotherapy were approximately 50% of the size of the control tumors, and the tumors of the mice that received both drugs were approximately 16% of the size of the control tumors.

O=C(O)CNC(=O)c1ncc(-c2cccc(F)c2)cc1O [disclosed HIF-2α stabilizer, {[5-(3-Fluorophenyl)-3-hydroxypyridine-2-carbonyl]amino} acetic acid]
tumor vascularity (CD31) [1]: decreased tumor vascularity
tumor growth / tumor volume ([2]; B16F10 melanoma, stabilizer 17 mg/kg I.P., GM-CSF I.T., vs PBS control, FIG. 3): reduces tumor growth
increase in median survival (time to a tumor diameter of 20 mm) ([2]; B16F10 melanoma-bearing mice, stabilizer alone, p=0.023, FIG. 12B): 3 days
average tumor volumes vs vehicle controls ([2]; day 16 of treatment, 3×/week, GM-CSF 100 ng/mouse intratumoral, stabilizer 17.5 mg/kg intraperitoneal, each p<0.001): significantly smaller
tumor growth ([2]; mice also treated with anti-sVEGFR-1 neutralizing antibody, p=0.245): no effect
tumor growth ([2]; mice treated with isotype control antibody, p<0.001): decreased tumor growth
PGK mRNA (relative amount) [3]: dramatic reduction
tumor size as % of the size of the control tumors [4]: approximately 78%

From patent US20170105981A1, “METHODS FOR STABILIZING HYPOXIA INDUCIBLE FACTOR-2 ALPHA AS A METHOD FOR TREATING CANCER” (The Ohio State Innovation Foundation, priority 2011, published 2017)
